# Experimental data as given in patent US20230256190A1, “Methods Of Administering High Concentrations Of Nitric Oxide” (Mallinckrodt Hospital Products IP Unlimited Company, priority 2012, published 2023).
# Assays:
# [1] = tested on: healthy subjects; test: Multiple-dose, single-blind, placebo-controlled tolerance study of pulsed nitric oxide: adverse events; type: in vivo, human; details: for Total % with any AE: 72 h pulsed inhalation
# Protocol: (§1) A multiple-dose, single-blind, placebo-controlled, tolerance study of pulsed volumes of nitric oxide was completed using healthy subjects. An objective of the study was to determine safe dosing limits of inhaled nitric oxide delivered via a pulse system at cylinder concentrations of 100, 400, and 800 ppm and gas volumes ranging from 4 to 60 mL/breath at dose rates ranging from 17 to 166 μg of NO/sec. Yet another objective of the study was to determine the safety profile, including adverse events (AEs), vital signs and laboratory parameters.
# Six subjects were assigned to each cohort (5 NO, 1 placebo) in a randomized, single-blind fashion. All subjects received 72 hours of continuous inhalation. A total of 22 cohorts were evaluated, with NO doses ranging from 125 to 1500 nmol/breath at delivery concentrations of 100, 400, or 800 ppm and varying volumes (4 to 60 mL per breath) in a matrix design, as shown in Table 1. Vital signs and safety laboratory were evaluated. Blood samples for determination of methemoglobin (MetHb) in venous blood, were collected for 72 hours at selected time points.
# (§2) Primary safety evaluations included: (1) qualitative assessment of local nasal tolerability via a scoring system (0 to 3); and (2) formation of MetHb (compared with a standard of 7%) following varying concentrations and volumes of pulsed doses of NO. Safety evaluations included assessments of adverse events (AEs), medical history, physical examinations, vital signs, electrocardiograms (ECGs) and laboratory assessments at baseline and during the study period.
# (§3) All evaluations were performed on the ‘Safety’ population, defined as all subjects who were enrolled and treated with any amount of study drug. Descriptive statistics included mean, standard deviation (SD), range, median, CV %, geometric mean and geometric CV %.
# (§4) For analysis purposes, cohorts that received the same dose of NO but different cylinder concentrations and volumes were pooled, thereby creating 15 dose levels (n=14 active NO and 1 placebo, from all dose groups combined). These 15 dose levels were grouped into 4 dose analysis groups: placebo, low-dose NO (1-500 nmol/breath), mid-dose NO (501-1000 nmol/breath), and high-dose NO (1001-1500 nmol/breath).
# [2] = tested on: healthy subjects; test: Local nasal tolerability scoring (0 to 3) during 72 hours of pulsed nitric oxide inhalation; type: in vivo, human; details: for Local tolerability Mean Score / Percent of Subjects Experiencing Nasal Irritation: 72 hours
# Protocol: as §1
# Six subjects were assigned to each cohort (5 NO, 1 placebo) in a randomized, single-blind fashion. […] A total of 22 cohorts were evaluated, with NO doses ranging from 125 to 1500 nmol/breath at delivery concentrations of 100, 400, or 800 ppm and varying volumes (4 to 60 mL per breath) in a matrix design, as shown in Table 1. Vital signs and safety laboratory were evaluated. […]
# as §2, §3, §4
# For analysis purposes, cohorts that received the same dose rate of administration of NO but different cylinder concentrations, doses and volumes were pooled, thereby creating 6 dose rate of administration levels (n=5 active NO and 1 placebo, from all rate of administration groups combined). The dose rate of administration of NO was calculated as the product of the flow rate of NO and the cylinder NO concentration.
# [3] = NO 501-1000 nmol/breath (N = 45)
# [4] = NO 1001-1500 nmol/breath (N = 15)
compound,measurement,setting,value
"[N]=O [NO, Nitric oxide]",Back pain (% of subjects),[1]; NO 1-500 nmol/breath (N = 50),6.0%
same,Headache (% of subjects),[1]; NO 1-500 nmol/breath (N = 50),8.0%
same,Nausea (% of subjects),[1]; NO 1-500 nmol/breath (N = 50),2.0%
same,Total % with any AE,[1]; NO 1-500 nmol/breath (N = 50),28.0%
same,Back pain (% of subjects),[1]; [3],4.4%
same,Headache (% of subjects),[1]; [3],4.4%
same,Nausea (% of subjects),[1]; [3],4.4%
same,Total % with any AE,[1]; [3],33.3%
same,Back pain (% of subjects),[1]; [4],0.0%
same,Headache (% of subjects),[1]; [4],20.0%
same,Nausea (% of subjects),[1]; [4],6.7%
same,Total % with any AE,[1]; [4],53.3%
same,Overall incidence of AEs,"[1]; across dose, cylinder concentration and volume cohorts",only dose related
same,"Subjects withdrawn due to chest discomfort, decreased O2 saturation, and dyspnea","[1]; high-dose NO group (1001-1500 nmol/breath), one subject",6.7%
same,Local tolerability Mean Score,[2]; cylinder concentration 100 ppm,0.10
same,Local tolerability Mean Score,[2]; cylinder concentration 400 ppm,0.09
same,Local tolerability Mean Score,[2]; cylinder concentration 800 ppm,0.33
same,Local tolerability Mean Score,"[2]; dose group 125 nmol/breath, score 0 to 3",0.07
same,Local tolerability Mean Score,"[2]; dose group 250 nmol/breath, score 0 to 3",0.00
same,Local tolerability Mean Score,"[2]; dose group 340 nmol/breath, score 0 to 3",0.10
same,Local tolerability Mean Score,"[2]; dose group 420 nmol/breath, score 0 to 3",0.00
same,Local tolerability Mean Score,"[2]; dose group 500 nmol/breath, score 0 to 3",0.10
same,Local tolerability Mean Score,"[2]; dose group 585 nmol/breath, score 0 to 3",0.40
same,Local tolerability Mean Score,"[2]; dose group 670 nmol/breath, score 0 to 3",0.00
same,Local tolerability Mean Score,"[2]; dose group 750 nmol/breath, score 0 to 3",0.00
same,Local tolerability Mean Score,"[2]; dose group 840 nmol/breath, score 0 to 3",0.60
same,Local tolerability Mean Score,"[2]; dose group 920 nmol/breath, score 0 to 3",0.00
same,Local tolerability Mean Score,"[2]; dose group 1000 nmol/breath, score 0 to 3",0.33
same,Local tolerability Mean Score,"[2]; dose group 1160 nmol/breath, score 0 to 3",0.40
same,Local tolerability Mean Score,"[2]; dose group 1340 nmol/breath, score 0 to 3",0.20
same,Local tolerability Mean Score,"[2]; dose group 1500 nmol/breath, score 0 to 3",0.75
same,Percent of Subjects Experiencing Nasal Irritation,[2]; dosing rate 17 μg NO/sec,0%
same,Percent of Subjects Experiencing Nasal Irritation,[2]; dosing rate 21 μg NO/sec,10.0%
same,Percent of Subjects Experiencing Nasal Irritation,[2]; dosing rate 33 μg NO/sec,10%
same,Percent of Subjects Experiencing Nasal Irritation,[2]; dosing rate 83 μg NO/sec,10%
same,Percent of Subjects Experiencing Nasal Irritation,[2]; dosing rate 167 μg NO/sec,36.4%
same,Local tolerability Mean Score,[2]; pulse volume 4 mL/pulse,0.00
same,Local tolerability Mean Score,[2]; pulse volume 8 mL/pulse,0.00
same,Local tolerability Mean Score,[2]; pulse volume 10 mL/pulse,0.20
same,Local tolerability Mean Score,[2]; pulse volume 15 mL/pulse,0.10
same,Local tolerability Mean Score,[2]; pulse volume 20 mL/pulse,0.00
same,Local tolerability Mean Score,[2]; pulse volume 25 mL/pulse,0.60
same,Local tolerability Mean Score,[2]; pulse volume 30 mL/pulse,0.07
same,Local tolerability Mean Score,[2]; pulse volume 35 mL/pulse,0.40
same,Local tolerability Mean Score,[2]; pulse volume 40 mL/pulse,0.10
same,Local tolerability Mean Score,[2]; pulse volume 45 mL/pulse,0.33
same,Local tolerability Mean Score,[2]; pulse volume 50 mL/pulse,0.00
same,Local tolerability Mean Score,[2]; pulse volume 55 mL/pulse,0.00
same,Local tolerability Mean Score,[2]; pulse volume 60 mL/pulse,0.30
same,Nasal irritation,"[2]; doses less than 420 nmol/breath (about 0.4 mg/kg/hr), 48 hours of continuous administration",no evidence of nasal irritation
same,Nasal tolerability compared with placebo,"[2]; doses less than 420 nmol/breath, at 72 hours",no different than for placebo
same,Subjects with nasal redness,"[2]; doses less than 420 nmol/breath, at 72 hours, placebo 3/18",2/18
same,Incidence of nasal irritation,"[2]; dosing rate of 166 μg g/sec, including a case of nasal ulceration",higher incidence of nasal irritation
same,Nasal tolerability compared with placebo,"[2]; dosing rates up to 166 μg/sec, 72 hours pulsed dosing",not different from placebo
